Type in all cases: cell-based, human
One experiment deals with MDA-MB-231 cells. Kind of experiment: in vitro transwell migration assay. The following applies: 16 hours. An excerpt:
MDA-MB-231/TGL cell lines was obtained from Dr. Joan Massagué (Minn, et al, J. Clin. Invest., 115:(1), 44-55 (2005)). CM cell line was obtained from Dr. Paolo Pozzilli (S. Kobayashi et al., Oncogenesis 8, 16 (2019)). MCF7 breast cancer cells and 8988T pancreatic cancer cells were infected with viruses carrying thymidine kinase/green fluorescent protein/luciferase fusion reporter (TGL), which was obtained from Drs. Inna Serganova and Ronald Blasberg (V. Ponomarev et al., European journal of nuclear medicine and molecular imaging 31, 740-751 (2004)). GFP-positive MCF7/TGL and 8999T/TGL cells were enriched by fluorescence-activated cell sorting. H1975, lung adenocarcinoma cell line, was obtained from ATCC (Manassas, VA). […]
6.5 mm Transwell with 8.0 µm Pore Polycarbonate Membrane Insert (Corning, NY, Cat. No. 3422) was used for the cell migration assay (FIG. 1J). After 16 hours of incubation, cells migrated to the opposite side of the upper chambers were fixed with 4% paraformaldehyde, stained with 0.2% crystal violet for 30 min and counted in five fields under × 20 magnification. […] The optical density was measured at 595 nm (OD595). […]
To examine whether CO has an effect on tumor cell migration, in vitro transwell migration assays were performed. […] Cell migration through the transwell membrane along a serum gradient (Table 1) after 16 hours in the presence or absence of 250 ppm CO were measured. […]

The next experiment relates to 8988T cells. The experiment is described as follows: in vitro transwell migration assay. The following applies: 16 hours. An excerpt:
(§1) MDA-MB-231/TGL cell lines was obtained from Dr. Joan Massagué (Minn, et al, J. Clin. Invest., 115:(1), 44-55 (2005)). CM cell line was obtained from Dr. Paolo Pozzilli (S. Kobayashi et al., Oncogenesis 8, 16 (2019)). MCF7 breast cancer cells and 8988T pancreatic cancer cells were infected with viruses carrying thymidine kinase/green fluorescent protein/luciferase fusion reporter (TGL), which was obtained from Drs. Inna Serganova and Ronald Blasberg (V. Ponomarev et al., European journal of nuclear medicine and molecular imaging 31, 740-751 (2004)). GFP-positive MCF7/TGL and […] cells were enriched by fluorescence-activated cell sorting. H1975, lung adenocarcinoma cell line, was obtained from ATCC (Manassas, VA). MCF7/TGL/pQ and MCF7/TGL/HA-Bcl-xL cell lines were generated by infecting MCF7/TGL cells with viruses carrying pQXCIP or pQXCIP-HA-Bcl-xL, and selected in the medium containing 0.5-1 µg/ml puromycin. Human CYP1B1cDNA (GeneScript) was transiently transfected into MCF7/TGL, MDA-MB-231/TGL, and 8988T/TGL with Lipofectamine 3000 according to the manufacture’s protocol (Invitrogen, Carlsbad, CA). Cells were treated with CO at 250 ppm for 16 hours. Control air condition was a regular cell culture incubator with 5% CO2. Cells were also treated with 30 µM Hemin (HY-19424, MedChemExpress, Monmouth Junction, NJ) in standard tissue culture incubator or 250 ppm CO.
(§2) 6.5 mm Transwell with 8.0 µm Pore Polycarbonate Membrane Insert (Corning, NY, Cat. No. 3422) was used for the cell migration assay (FIG. 1J). After 16 hours of incubation, cells migrated to the opposite side of the upper chambers were fixed with 4% paraformaldehyde, stained with 0.2% crystal violet for 30 min and counted in five fields under × 20 magnification. In parallel, cells were seeded on 24-well plates for proliferation assay. Cells for proliferation control were fixed with 4% paraformaldehyde, stained with 0.2% crystal violet for 30 min and lysed with methanol to release the crystal violet as described by M. Feoktistova, P. Geserick, & M. Leverkus, Cold Spring Harb Protoc 2016, pdb prot087379 (2016). The optical density was measured at 595 nm (OD595). To supplement heme/hemin in the transwell migration assay, 30 µM hemin (MedChemExpress, Monmouth Junction, NJ, Cat. No. HY-19424) was added to both the cell suspension in the upper chambers and the bottom wells.
(§3) To examine whether CO has an effect on tumor cell migration, in vitro transwell migration assays were performed. Various human cancer cell lines, including 3 types of breast cancer (ER^+: MCF7 cells, HER2^+: HCC1954 cells, triple-negative breast cancer (TNBC): MDA-MB-231 cells), pancreatic ductal adenocarcinoma (PDAC) (8988T cells), pancreatic neuroendocrine tumor (PNET) (CM cells), colon cancer (SW480 cells), prostate cancer (22Rv1 cells), liver cancer (HepG2 cells), and lung cancer (H1975 cells) were seeded in the upper chamber of 8-µm porous polycarbonate membranes. Cell migration through the transwell membrane along a serum gradient (Table 1) after 16 hours in the presence or absence of 250 ppm CO were measured.

For another experiment, the system named is SW480 cells. The experiment is described as follows: in vitro transwell migration assay. The following applies: 16 hours.
Description: as §1, §2, §3

A further experiment concerns CM cells. Kind of experiment: in vitro transwell migration assay. The following applies: 16 hours.
Description: as §1, §2, §3

For the next experiment, the system named is 22Rv1 cells. The experiment is described as follows: in vitro transwell migration assay. The settings on record: 16 hours.
Description: as §1, §2, §3

The subject of another experiment is HepG2 cells. The experiment is described as follows: in vitro transwell migration assay. The following applies: 16 hours.
Description: as §1, §2, §3

The subject of a further experiment is H1975 cells. The experiment is described as follows: in vitro transwell migration assay. The settings on record: 16 hours.
Description: as §1, §2, §3

The test system of a further experiment is MCF7 cells. The experiment is described as follows: in vitro transwell migration assay. The following applies: 16 hours.
Description: as §1, §2, §3

The next experiment deals with HCC1954 cells. The experiment is described as follows: in vitro transwell migration assay. The settings on record: 16 hours.
Description: as §1, §2, §3

The subject of experiment [1] is various cancer cell lines. Kind of experiment: proliferation assay, statements across cancer types. The method, then: Proliferation of different cancer cells under control air or 250 ppm CO treatment with or without supplement of 30 µM hemin was determined. Indicated cell lines cell lines were seeded in the 24-well plate in normal growth media. 16 hours later, cells were fixed, stained with crystal violet, and lysed by methanol. OD595 were measured from triplicates of each cell type. Error bars represent SEM. *: P < 0.05, two-sided t-test. Scale bar, 100 µm.
6.5 mm Transwell with 8.0 µm Pore Polycarbonate Membrane Insert (Corning, NY, Cat. No. 3422) was used for the cell migration assay (FIG. 1J). After 16 hours of incubation, cells migrated to the opposite side of the upper chambers were fixed with 4% paraformaldehyde, stained with 0.2% crystal violet for 30 min and counted in five fields under × 20 magnification. In parallel, cells were seeded on 24-well plates for proliferation assay. […] The optical density was measured at 595 nm (OD595). […]
To investigate whether 250 ppm CO induces hypoxia, HiF1α protein levels in low-dose CO-treated MCF7/TGL and MDA-MB-231/TGL cells were examined. […] To assess the intracellular heme levels affected by low-dose CO treatment, oxidized heme levels in the form of hemin (Fe^3+ state) were measured because free heme (Fe^2+ state) is readily oxidized and cannot be measured. […]

[2] abbreviates: 250 ppm CO, serum gradient, vs control air.
[3] abbreviates: 30 µM hemin in upper and lower chambers + 250 ppm CO.

Take `[C-]#[O+]` [CO, Carbon monoxide]: the “cell migration through the transwell membrane” value is reported as “significantly reduced” in the experiment with MDA-MB-231 cells (MDA-MB-231 cells, 250 ppm CO, serum gradient, vs control air); “significantly reduced” in the experiment with 8988T cells (setting [2]); “significantly reduced” in the experiment on SW480 cells (setting [2]); “significantly reduced” in the experiment on CM cells (setting [2]); “significantly reduced” with 22Rv1 cells (setting [2]); “significantly reduced” in the experiment on HepG2 cells (setting [2]). In addition, the “cell migration through the transwell membrane” value with H1975 cells (setting [2]) is on record as “significantly reduced”; with MCF7 cells (MCF7 cells, 250 ppm CO, serum gradient, vs control air), “significantly reduced”; with HCC1954 cells (setting [2]), “significantly reduced”. The “cancer cell proliferation across different cancer types” value in [1] (250 ppm CO for 16 hours, vs control air) is “does not affect”.

As to Hemin [reference compound], the “cell migration inhibited by 250 ppm CO (reversal by hemin)” value in the experiment on MDA-MB-231 cells (MDA-MB-231/TGL cells, 30 µM hemin in upper and lower chambers + 250 ppm CO) is on record as “significantly reversed”; with 8988T cells (setting [3]), “significantly reversed”; in the experiment on SW480 cells (setting [3]) it was “significantly reversed”; in the experiment with CM cells (setting [3]), “significantly reversed”; in the experiment on 22Rv1 cells (setting [3]), “significantly reversed”; in the experiment with HepG2 cells (setting [3]), “significantly reversed”. The “cell migration inhibited by 250 ppm CO (reversal by hemin)” value in the experiment with H1975 cells (setting [3]) is “significantly reversed”; in the experiment with MCF7 cells (MCF7/TGL cells, 30 µM hemin in upper and lower chambers + 250 ppm CO), “significantly reversed”; in the experiment on HCC1954 cells (setting [3]), “significantly reversed”. Moreover, the “cell proliferation of various cancer cell lines with hemin” value in [1] (30 µM hemin in the medium (FIGS. 2C-2E)) is listed as “slightly increased”.

Source of the values: patent publication US20230346831A1, “METHODS FOR TREATING […] USING LOW DOSE CARBON MONOXIDE” (priority 2020, published 2023).
